From publication PMC9785471, “Exploring Cryptococcus neoformans CYP51 and Its Cognate Reductase as a Drug Target” (Journal of Fungi, 2022)

Target: T1, CnCYP51 (lanosterol 14α-demethylase, CnCYP51-6×His) (Cryptococcus neoformans, UniProt J9VHT4)
T1 construct: gene CNAG_00040; full-length, C-terminal hexahistidine-tagged, codon-optimised, expressed in S. cerevisiae
Test: Type II absorbance difference spectral titration of purified CYP51, Hill fit
Type: binding

T1 sequence (J9VHT4 entry or part of it): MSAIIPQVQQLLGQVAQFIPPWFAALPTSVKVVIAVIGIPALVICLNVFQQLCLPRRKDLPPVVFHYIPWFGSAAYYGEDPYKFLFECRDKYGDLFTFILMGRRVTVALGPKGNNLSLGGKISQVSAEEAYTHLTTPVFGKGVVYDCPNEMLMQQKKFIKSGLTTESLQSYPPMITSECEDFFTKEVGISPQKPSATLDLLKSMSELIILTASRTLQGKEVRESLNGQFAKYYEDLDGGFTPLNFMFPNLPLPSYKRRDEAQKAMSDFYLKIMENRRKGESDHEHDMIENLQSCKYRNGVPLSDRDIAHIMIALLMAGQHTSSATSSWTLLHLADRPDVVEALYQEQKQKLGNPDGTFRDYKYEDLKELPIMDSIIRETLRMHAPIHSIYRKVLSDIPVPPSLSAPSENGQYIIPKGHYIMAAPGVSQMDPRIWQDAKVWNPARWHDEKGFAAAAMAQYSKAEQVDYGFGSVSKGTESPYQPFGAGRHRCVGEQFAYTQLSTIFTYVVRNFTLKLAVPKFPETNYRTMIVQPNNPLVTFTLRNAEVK

| SMILES | Kd |
| --- | --- |
| C[C@@H](c1ncncc1F)[C@](O)(Cn1cncn1)c1ccc(F)cc1F [VCZ, Voriconazole] | 390 ± 13 nM |
| CC[C@@H]([C@H](C)O)n1ncn(-c2ccc(N3CCN(c4ccc(OC[C@@H]5CO[C@@](Cn6cncn6)(c6ccc(F)cc6F)C5)cc4)CC3)cc2)c1=O [PCZ, Posaconazole] | 200 ± 10 nM |
